Where “and” joins values, the source holds several entries; their conditions need not be identical. Equal values may be shown once. Where a name gives a salt, the structure may show the parent alone. Read-outs that look alike come from different tables or passages of the source.
Test: Pharmacokinetic test in rats, intravenous injection
Assay type: in vivo, SD rats
Conditions: for concentration at 0.25 h / concentration at 0.5 h / concentration at 1 h / concentration at 2 h / concentration at 3 h: Sprague-Dawley, intravenous, 2 mg/kg iv
Procedure: The preferred compound of the present disclosure was assessed in rats for its pharmacokinetic profile.
SD rats, male and female, weighing 150 to 250 g
Mobile phase: 10 mM ammonium formate aqueous solution:methanol=15:85
The ionization source was electrospray ionization source. The detection mode was positive mode. Multiple reaction monitoring (MRM) was used as the scanning mode. The ion reaction for the quantitative analysis was the following: m/z was 305.2\150.0 for XX, and 256.1\167.1 for diphenhydramine (the internal standard).
Four male SD rats were taken. The dosage was calculated as 5 mL/kg body weight and 2 mg/kg. XX or YY was dissolved in DMSO (3% of a total volume) and castor oil (3% of the total volume) was added to the solution, followed by agitating with a vortex mixer. Subsequently, saline was added to the mixture to the total volume to afford the intravenous injection for the rats. The injections were intravenously administered to four male SD rats. Blood from the rats' orbits was collected 3 min, 8 min, 15 min, 30 min, 1 hr, 2 hr, 3 hr, 4 hr, 6 hr, 9 hr, 12 hr and 24 hr later after the injection, respectively.
After the blood collection, the tubes were immediately gently turned upside down at least five times to ensure sufficient mixing, and placed on ice. Heparin was added for anticoagulation. The samples were centrifuged at 8000 rpm for 5 min to separate serum from erythrocyte. The serum was transferred with a pipettor to 2 mL polypropylene (PP) tubes, which were marked with the name of the compound and the time points, and stored in a refrigerator at −40° C. before LC-MS analysis. Samples with high concentrations were diluted with rat blank plasma.
2.5 μL of Meth-H2O and 5 μL of the internal standard solution (20 ng/mL, IS) were added to 50 μL of the plasma. Subsequently, 150 μL of methanol was added to the mixture to precipitate protein and the samples were then centrifuged at 13000 rpm for 5 min. The upper organic phase was taken out, filtrated with a 0.22 μM microporous membrane, and 2 μL of the sample was injected for the LC-MS analysis.

[1] = male, rat, plasma, 2 mg/kg, individual rats, read-out: Concentrations in Plasma of Rats after Intravenous Injection
[2] = male, rat, plasma, 2 mg/kg, mean, read-out: Concentrations in Plasma of Rats after Intravenous Injection, Mean ± SD
[3] = rats, iv 2 mg/kg, individual rats, 2 mg/kg

AUC(0-inf) (male, SD, rat, plasma, iv, 2 mg/kg, rats, iv 2 mg/kg, XX n = 4, YY n = 3, read-out: AUC0-∞, Mean ± SD): 482 ± 23.6 ng·h/mL
Cmax (male, SD, rat, plasma, iv, 2 mg/kg, rats, iv 2 mg/kg, XX n = 4, YY n = 3, read-out: Cmax, Mean ± SD): 126 ± 5.68 ng/mL
MRT inf (male, SD, rat, plasma, iv, 2 mg/kg, rats, iv 2 mg/kg, XX n = 4, YY n = 3, read-out: MRT0-∞, Mean ± SD): 6.87 ± 0.84 h
Vd (male, SD, rat, plasma, iv, 2 mg/kg, rats, iv 2 mg/kg, XX n = 4, YY n = 3, read-out: Vz, Mean ± SD): 32.9 ± 9.76 L/kg
half-life (male, SD, rat, plasma, iv, 2 mg/kg, rats, iv 2 mg/kg, XX n = 4, YY n = 3, read-out: t1/2, Mean ± SD (converted)): 5.47 ± 1.49 h
AUC(0-t) (male, SD, rat, plasma, iv, 2 mg/kg, rats, iv 2 mg/kg, individual rats 1-4 (Table 9), read-out: AUC0-1): 462 ng·h/mL
AUC(0-inf) (male, SD, rat, plasma, iv, 2 mg/kg, rats, iv 2 mg/kg, individual rats, read-out: AUC0-∞): 467 ng·h/mL
Cmax (male, SD, rat, plasma, iv, 2 mg/kg, rats, iv 2 mg/kg, individual rats, read-out: Cmax): 134 ng/mL
MRT inf (male, SD, rat, plasma, iv, 2 mg/kg, rats, iv 2 mg/kg, individual rats, read-out: MRT0-∞): 6.59 h
Vd (male, SD, rat, plasma, iv, 2 mg/kg, rats, iv 2 mg/kg, individual rats, read-out: Vz): 23 L/kg
half-life (male, SD, rat, plasma, iv, 2 mg/kg, rats, iv 2 mg/kg, individual rats, read-out: t1/2 (converted)): 3.72 h
AUC(0-t) (male, SD, rat, plasma, iv, 2 mg/kg, rats, iv 2 mg/kg, n = 4 (Table 9), read-out: AUC0-1, Mean ± SD): 461 ± 29.5 ng·h/mL
concentration at 0.25 h [1]: 78.1 ng/mL
concentration at 0.25 h [2]: 77.8 ± 0.78 ng/mL
concentration at 0.5 h [1]: 76.6 ng/mL
concentration at 0.5 h [2]: 75.2 ± 2.61 ng/mL
concentration at 1 h [1]: 72.2 ng/mL
concentration at 1 h [2]: 69.9 ± 3.51 ng/mL
concentration at 2 h [1]: 60.7 ng/mL
concentration at 2 h [2]: 63.2 ± 7.01 ng/mL
concentration at 3 h [1]: 49.6 ng/mL
concentration at 3 h [2]: 47.8 ± 6.6 ng/mL
CL, Mean ± SD (rats, iv 2 mg/kg, XX n = 4, YY n = 3): 4.16 ± 0.20 L/h/k
Cmax [3]: 123.2 ng/mL and 127.2 ng/mL and 121.4 ng/mL
MRT0-∞ [3]: 6.14 h and 6.67 h and 8.08 h
Vz [3]: 29.0 L/kg and 33.4 L/kg and 46.0 L/kg
t1/2 [3]: 5.15 h and 5.66 h and 7.33 h
Structure (SMILES): [2H]C([2H])([2H])c1ccc(Sc2ccccc2N2CCNCC2)c(C([2H])([2H])[2H])c1 [XX, 1-{2-[2,4-bis(trideuteriomethyl)phenylsulfanyl]phenyl}piperazine hydrobromic acid salt]
AUC0-1 (rats, iv 2 mg/kg, individual rats 1-4 (Table 9), 2 mg/kg): 492.9 ng·h/mL and 466.0 ng·h/mL and 421.5 ng·h/mL
AUC0-∞ [3]: 512.0 ng·h/mL and 489.7 ng·h/mL and 459.8 ng·h/mL
CL [3]: 42.8 L/h/k and 3.91 L/h/k and 4.09 L/h/k and 4.35 L/h/k

Reference: US9896423B2, “Deuterium substituted 1-[2-(2,4-dimethyl-phenylsulfanyl)-phenyl]piperazine compound or derivatives thereof, and pharmaceutical composition and use thereof” (Jiangsu Jibeier Pharmaceutical Co. Ltd., priority 2014, dated 2018)
